Assays:
[1] = test system: SIV gag DNA in CD4+ T cells; assay: Cell-associated SIV DNA / RNA in CD4+ T cells; type: in vivo; details: before dose 1, 3dp- and 2wp-AZD5582 treatment, infant RMs
Experimental: Plasma viral quantification was performed as described previously ([12]). The frozen cell pellet was lysed with proteinase K (100 μg/mL in 10 mM Tris-HCl pH 8) for 1h at 56°C. Quantification of SIVmac gag DNA was performed by quantitative PCR (qPCR) using the 5′ nuclease (TaqMan) assay with an ABI7500 system (PerkinElmer Life Sciences). The sequence of the forward primer for SIVmac gag was 5′-[…]-3′, the reverse primer sequence was 5′-[…]-3′, and the probe sequence was 5′-6-carboxyfluorescein (FAM)-[…]-6-carboxytetramethylrhodamine (TAMRA)-3′. 7.5 μL of cell lysate were mixed in a 50 μL reaction mixture containing 1× Platinum Buffer, 3.5 mM MgCl2, 0.2 mM dNTP, primers 200 nM, probe 150 nM, and 2U Platinum Taq. For cell number quantification, quantitative PCR was performed simultaneously for monkey albumin gene copy number. The sequence of the forward primer for albumin was F 5′-[…]-3′; the reverse primer sequence was 5′- ATGGTCGCCTGTTCACCAA-3′ and the probe sequence was 5′-[…]-3′ ([34]). The reactions were performed on a 7500 real-time PCR system (Applied Biosystems) with the following thermal program: 10 min at 95°C, followed by 40 cycles of denaturation at 95°C for 15 s and annealing at 60°C for 1 min.

SIVmac239 = test system: SIVmac239; design: method as in PMID 31969707; details: adult RMs; cited from earlier work
SIVmac251 = assay: On-ART viremia (latency reversal) during AZD5582 treatment of SIV-infected, ART-suppressed infant RMs; type: in vivo, rhesus macaque (Macaca mulatta)
Excerpt: In this study, latency reversal was defined as a plasma SIV RNA level above 60 copies/mL during AZD5582 treatment in the presence of continued daily ART (or, “on-ART viremia”). […] On-ART viremia peaked at 771 copies/mL in RVf20 2 days post-dose 9. […] This low-level viremia contrasts, however, with the sustained suppression below 60 copies/mL in the 10 months before AZD5582 treatment in these 3 infants (Fig. 1B).
Twelve infant, Indian RMs (Macaca mulatta), with the exclusion of Mamu B*08- and B*17-positive animals, were enrolled in this study. The animals were born at the Yerkes National Primate Research Center (YNPRC) to dams housed in indoor/outdoor group housing. The infants were removed from the dams when they were approximately 2 weeks old and transferred to an indoor nursery, where they were housed in social pairs with either full contact or protected contact for the duration of the study. The infants were fed in accordance with the YNPRC standard operating procedures (SOPs) for NHP feeding. After being removed from the dam, infants were fed center-approved milk replacer (Similac Advance, OptiGro Infant Formula with Iron and/or Similac Soy Isomil OptiGro Infant Formula with Iron; Abbott Nutrition, Columbus, OH) until 14 weeks of age. Infants were provided softened standard primate jumbo chow biscuits (Jumbo Monkey Diet 5037; Purina Mills, St. Louis, MO) and a portion of orange starting between 2 to 4 weeks of age. As animals aged additional enrichment of various fresh produce items were provided daily. The animals were orally infected at 4 to 5 weeks of age with two consecutive doses of 10^5 TCID50 (50% tissue culture infectious doses) of SIVmac251. Three infants required multiple weekly 2-dose challenges before successful infection (totaling up to three challenges). Eight historical controls that followed the same regimen were included in this study. Yerkes National Primate Research Center is accredited by both the U.S. Department of Agriculture (USDA) and by the Association for Assessment and Accreditation of Laboratory Animal Care (AAALAC). All animal procedures were performed in accordance with guidelines established by the Emory University Institutional Animal Care and Use Committee Guidelines and those set up by the NIH’s Guide for the Care and Use of Laboratory Animals, 8th edition.
The 12 RM infants were treated with a potent three-drug ART regimen initiated at 4 weeks postinfection. The preformulation ART cocktail contained two reverse transcriptase inhibitors, 5.1 mg/kg tenofovir disoproxil fumarate (TDF) and 40 mg/kg emtricitabine (FTC), plus 2.5 mg/kg of the integrase inhibitor dolutegravir (DTG). This ART cocktail was administered once daily at […] via the subcutaneous route.
The IAPi AZD5582 was reconstituted to 0.4 mg/mL in 10% Captisol within 1 week of administration as previously described ([17]). Monkeys assigned to the experimental intervention group received 10 administrations of 0.1 mg/kg AZD5582 by intravenous (i.v.) infusion with an inline filter for 30 minutes every week for 10 weeks.
Plasma viral quantification was performed as described previously ([12]). The frozen cell pellet was lysed with proteinase K (100 μg/mL in 10 mM Tris-HCl pH 8) for 1h at 56°C. Quantification of SIVmac gag DNA was performed by quantitative PCR (qPCR) using the 5′ nuclease (TaqMan) assay with an ABI7500 system (PerkinElmer Life Sciences). The sequence of the forward primer for SIVmac gag was 5′-[…]-3′, the reverse primer sequence was 5′-[…]-3′, and the probe sequence was 5′-6-carboxyfluorescein (FAM)-[…]-6-carboxytetramethylrhodamine (TAMRA)-3′. 7.5 μL of cell lysate were mixed in a 50 μL reaction mixture containing 1× Platinum Buffer, 3.5 mM MgCl2, 0.2 mM dNTP, primers 200 nM, probe 150 nM, and 2U Platinum Taq. For cell number quantification, quantitative PCR was performed simultaneously for monkey albumin gene copy number. […]

[2] = 10 weekly doses 0.1 mg/kg i.v., LOD 60 copies/mL

CN[C@@H](C)C(=O)N[C@H](C(=O)N1CCC[C@H]1C(=O)N[C@H]1c2ccccc2C[C@H]1OCC#CC#CCO[C@@H]1Cc2ccccc2[C@@H]1NC(=O)[C@@H]1CCCN1C(=O)[C@@H](NC(=O)[C@H](C)NC)C1CCCCC1)C1CCCCC1 [AZD5582]
Cell-associated SIV RNA in peripheral CD4+ T cells [1]: remained stable
SIV reactivation, events >60 copies/ml (SIVmac239): 64/140
SIV reactivation, events >60 copies/ml (percent) (SIVmac239): 46%
SIV reactivation, per animal (RMs with on-ART viremia) (SIVmac239): 5/9
SIV reactivation, per animal (percent) (SIVmac239): 56%
First instance of latency reversal, time after the 4th dose (SIVmac251): 48 h
Start of on-ART viremia, time post-dose 4 (SIVmac251): 3 days
SIV reactivation, per animal (RMs with on-ART viremia above LOD) (SIVmac251; [2]): 5/8
SIV reactivation, per animal (percent of RMs with on-ART viremia) (SIVmac251; [2]): 63%
SIV reactivation, events >60 copies/ml (percent of measurements) (SIVmac251; 135 measurements in the 5 RMs with on-ART viremia): 6%
Peak on-ART viremia (SIVmac251; RVf20, 2 days post-dose 9): 771 copies/mL
SIV reactivation, events >60 copies/ml (measurements above LOD) (SIVmac251; of 135 viral load measurements in the 5 RMs with on-ART viremia): 8
